Source: patent US20260200984A1, “PEPTIDE FOR CARTILAGE REGENERATION, AND USES THEREOF” (CAREGEN CO., LTD., priority 2022, published 2026)
Read-outs that look alike come from different tables or passages of the source. Where no end group is shown, it is not given here.

Experiments:
[1] = tested on: human adipose-derived mesenchymal stem cells (AD-MSC)
Description: (§1) The aim was to analyze the cytotoxicity caused by the addition of Peptide-1 or Peptide-2 to human adipose-derived mesenchymal stem cells (AD-MSC) using the CCK-8 assay.
(§2) Specifically, AD-MSC cells were seeded in 96-well plates at a density of 1.5×10^3 cells/well and cultured in Dulbecco's Modified Eagle's Medium (DMEM) supplemented with 10% FBS for 24 hours. Then, the medium was replaced with DMEM medium supplemented with 5% FBS, and Peptide-1 or Peptide-2 was treated at different concentrations, respectively. Subsequently, the medium was replaced every 3 days and Peptide-1 or Peptide-2 was treated at different concentrations, respectively. To confirm CCK-8 activity, after 7 days, CCK-8 (Dojindo, CCK-8 kit) solution was added at 1/10 volume of the culture medium, and incubated for 2 hours. The culture medium was sampled and CCK-8 activity was confirmed at a wavelength of 450 nm using a microplate reader.

[2] = tested on: human adipose-derived mesenchymal stem cells (AD-MSC); assay: CCK-8 cytotoxicity assay in AD-MSC cells; conditions: different concentrations, 7 days, absorbance 450 nm, FIG. 1, FIG. 2
Description: as §1, §2

**Q.** How did the “toxicity toward adipose-derived mesenchymal stem cells (CCK-8 activity)” value [1] turn out when QSSLRALR [Peptide-2, QSSLRALR] was run?
**A.** did not exhibit toxicity

**Q.** How did the “toxicity toward adipose-derived mesenchymal stem cells (CCK-8 activity)” value [2] turn out when “SHIAGGLSFHSTV [Peptide-1, SHIAGGLSFHSTV]” was run?
**A.** did not exhibit toxicity
